Experimental data: patent US20240358701A1, “PHARMACEUTICAL COMPOSITIONS AND COMBINATIONS COMPRISING INHIBITORS OF THE ANDROGEN RECEPTOR AND USES THEREOF” (ESSA Pharma Inc., priority 2021, published 2024)
Like-named read-outs stand apart in the source and are kept apart here.

Columns and labels:
[1] = Phase 1 dose escalation (Example 3): PK evaluation / drug-drug interaction; assay type: in vivo, human; conditions: for exposure under drug-drug interaction with a concomitant medication (strong CYP3A inducer): discontinued at end of cycle 2; for AUC: human, plasma, oral, 600 mg QD, read-out: AUCss for Compound A
Protocol: Phase 1 of the study is a single-arm dose escalation study of Compound A in combination with a fixed dose of enzalutamide (120 mg/day). This portion of the study primarily evaluates the safety and tolerability of the drug combination and establishes the RP2CD for Compound A and enzalutamide when dosed in combination. In addition, blood sampling will be conducted for PK evaluation to assess the potential drug-drug interaction (DDI) between the two drugs.
In the Phase 1 part of the study each dose cohort will receive a 7-day run-in with single agent Compound A to establish steady-state concentrations of this drug at that dose level, followed by 28-day cycles of the combination Compound A with enzalutamide. Subjects may remain on study treatment as long as they are tolerating treatment without disease progression based on Response Evaluation Criteria in Solid Tumors (RECIST) v1.1 or based on Prostate Cancer Working Group 3 (PCWG3) criteria. A 30-day End of Treatment Visit will be conducted 30 days from the date of the last dose.
For Cohort 1, subjects (n=3) were orally administered 600 mg QD (once a day) of Compound A alone for 7 days then administered 600 mg QD Compound A in combination with 120 mg QD enzalutamide for at least one cycle (e.g., 28 days). Two subjects received the combination of Compound A and enzalutamide for at least 4 cycles (e.g., 16 weeks).
The plasma concentration data for Compound A, enzalutamide, N-desmethylated enzalutamide (M2; active metabolite) will be analyzed using non-compartmental methods to obtain estimates of standard PK parameters.
PK parameters of Compound A following multiple dosing including but not limited to plasma area under the concentration-time curve from time zero to 24 hours (AUC0-24), maximum concentration (Cmax), observed pre-dose plasma concentration during multiple dosing (Ctrough), time to reach Cmax (Tmax), apparent terminal elimination half-life (t½; whenever feasible to calculate), apparent volume of distribution at steady state after extravascular administration (Vss/F), apparent clearance after extravascular administration (CL/F).
PK parameters of enzalutamide and its primary active metabolite following multiple dosing including but not limited to AUC0-24, Cmax, Ctrough, Tmax, t½ (whenever feasible to calculate), Vss/F, CL/F.

[2] = enzalutamide monotherapy, cited from earlier work
[3] = Cohort 1: 600 mg QD Compound A + 120 mg QD enzalutamide

Row | Compound | exposure under drug-drug interaction with a concomitant medication (strong CYP3A inducer) ([1]; Cohort 1, third subject) | Compound A exposure, impact of enzalutamide [1, 3] | AUC ([1]; Cohort 1, first subject, no prior chemotherapy (FIG. 1A)) [ng·h/mL] | AUC ([1]; Cohort 1, second subject, prior chemotherapy (FIG. 1B)) [ng·h/mL] | AUC ([1]; Cohort 1, third subject, prior chemotherapy, concomitant strong CYP3A inducer (FIG. 1C)) [ng·h/mL] | 90 day confirmed PSA<0.2 ng/mL rate ([2]; post-chemotherapy population) [%] | 90 day confirmed PSA<0.2 ng/mL rate ([2]; pre-chemotherapy population) [%] | enzalutamide exposure, impact of Compound A administration [1, 3]
1 | CC(C)(c1ccc(OCc2ccnc(NS(C)(=O)=O)n2)cc1)c1cc(Cl)c(OCCCl)c(C#N)c1 [Compound A, N-(4-((4-(2-(3-chloro-4-(2-chloroethoxy)-5-cyanophenyl)propan-2-yl)phenoxy)methyl)pyrimidin-2-yl)methanesulfonamide] | significant decrease in exposure | impacted by enzalutamide with higher metabolism of Compound A observed | ~235000 | ~62000 | ~33000 |  |  | 
2 | CNC(=O)c1ccc(N2C(=S)N(c3ccc(C#N)c(C(F)(F)F)c3)C(=O)C2(C)C)cc1F [enzalutamide, reference compound] | significant decrease in exposure |  |  |  |  | 1 | 5 | only minimally impacted
